Reference: paper PMC4821856, “Novel Anti-Campylobacter Compounds Identified Using High Throughput Screening of a Pre-selected Enriched Small Molecules Library” (Frontiers in Microbiology, 2016)
In brackets after ≈: the same amount, converted by molar mass. Read-outs that look alike come from different tables or passages of the source.

Legend:
C. coli ATCC 33559 [1] = test: Minimum inhibitory concentration (MIC); assay type: cell-based
Procedure: (§1) The dose-dependent effect of 35 compounds against the highly pathogenic C. jejuni 81–176 strain was tested. Compounds were two-fold serially diluted (200 to 12.5 μM). One hundred micro liter of the OD600 0.1 adjusted C. jejuni culture was pipetted in to each well of a 96 well plate, treated with 1 μL of diluted compound and the plate was incubated at 42°C under microaerobic conditions for 24 h. Growth inhibition was assessed as above.
(§2) Initially we re-confirmed the efficacy of the 79 resynthesized compounds against C. jejuni 81–176 and C. coli ATCC 33559.
(§3) Minimum inhibitory concentration value not necessarily indicates the killing concentration; therefore, we determined MBC for the top-12 compounds. MBC is defined as the concentration at which 99.9% (below detection limit) of Campylobacter organisms are killed. The MBC for each of these compounds were determined as described previously (Ling et al., [2015]). […] Overall MIC and MBC values were higher for C. coli compared to C. jejuni strain. The MIC and MBC for these 12 compounds for both C. jejuni and C. coli are presented in (Table 1).

C. jejuni 81–176 [2] = test: Minimum inhibitory concentration (MIC), two-fold serial dilution, OD600 end point; assay type: cell-based; details: Campylobacter jejuni, 24 h, read-out: C. jejuni MIC (minimum inhibitory concentration)
Procedure: A primary screen was conducted using the highly invasive C. jejuni strain 81–176 originally isolated from a diarrheic patient (Korlath et al., [1985]). The C. jejuni strains were routinely grown on Mueller-Hinton (MH; Becton Dickinson and Company, MD) agar under microaerobic conditions (85% N2, 10% CO2, and 5% O2) in a DG250 Microaerophilic Workstation (Microbiology International, MD) for 18 h, washed with MH broth and adjusted to a final OD600 of 0.1 in MH broth. One hundred micro liter of culture was transferred to 96-well plates and 1 μL (200 μM/μL) of library compounds and controls were added using a pin tool (Wallace et al., [2011]). Growth controls including DMSO (1% final concentration), kanamycin (50 μg), and chloramphenicol (20 μg) were added to duplicate wells along with 100 μL un-inoculated MH broth as sterility control. The final concentration was 200 μM for each small molecule. Prior to growth, an aluminum foil was applied (to avoid drug degradation) and plates were then incubated at 42°C, under microaerobic conditions for 24 h. The end-point OD600 was measured in a Sunrise TM Tecan plate reader (Tecan Group Ltd. San Jose, CA). We initially tried to exploit the automatic kinetic OD reader option of the Sunrise TM Tecan system but were un-successful. Maintenance of the microaerophilic growth conditions required by C. jejuni was difficult in the Tecan reader which is ideally suited for aerobic bacteria. Therefore, we used an end point assay. The quality of high-throughput screen (HTS) was evaluated by calculating the Z′-factor as described previously (Zhang et al., [1999]). Z′-factor is defined as 1−((3σp + 3σn)/|μp − μn|)) where “σp” and “σn” are the standard deviations of the positive (culture+ DMSO) and negative (culture+antibiotics) controls, respectively and “μp” and “μn” are the means of the positive and negative controls, respectively. A Z′-factor >0.5 indicates a robust assay (Zhang et al., [1999]).
(§4) The percentage of C. jejuni growth inhibition was calculated as mentioned previously (De La Fuente et al., [2006]) using the following formula: percentage of inhibition = 100 × (OD negative control–OD test compound)/(OD negative control–OD positive control). Compounds that inhibited Campylobacter growth ≥ 99.0% were selected as primary hits. The culture in wells with ≥ 99% growth inhibition were streaked onto fresh MH agar, as were the sterility, antibiotic and no compound control wells. Bacterial growth was measured on the plate after 48 h at 42°C. Based on the recovery of C. jejuni on MH agar plates, the compound was classified as either “bacteriostatic” or “bactericidal.”
as §1
The minimal concentrations of compounds that inhibit the growth of C. jejuni were tested by two-fold serial dilution of each of compound in media as well as in DMSO. The results were reproducible irrespective of diluent used; however, a few compounds precipitated when media was used as a diluent. A recent study also described the in-solubility issues with a few small molecule compounds when dissolved in media for MIC determination (Selin et al., [2015]). […] Among the 21 compounds, 16 were effective at 50 μM, 7 were effective at 25 μM, and 4 were effective at 12.5 μM. We selected top-12 bactericidal compounds with MICs varying from 100 to 12.5 μM concentration for further downstream study.

C. jejuni 81–176 [3] = test: Minimum bactericidal concentration (MBC); assay type: cell-based, Campylobacter jejuni; details: for MBC: Campylobacter jejuni, read-out: C. jejuni MBC (minimum bactericidal concentration)
Procedure: as §4, §3

C. coli ATCC 33559 [4] = test: Minimum bactericidal concentration (MBC); assay type: cell-based, Campylobacter coli; details: for MBC: Campylobacter coli
Procedure: as §2, §3

C. jejuni 81–176 [5] = test: Single step resistance assay at lethal dose (5X MIC) on solid media; assay type: cell-based, Campylobacter jejuni; details: solid MH agar with 5X MIC, 5 days, 42°C; resistant colonies observed yes/no
Procedure: Single step and sequential passage resistance assays were performed as described previously with a few modifications (Ling et al., [2015]; Xu et al., [2015]). The top 12 hit compounds were tested in this experiment. The MIC values for each of these 12 compound as determined in above assay was used for C. jejuni resistance studies using lethal (5X MIC) and sub-lethal (0.5X MIC) concentrations.
Campylobacter jejuni grown in MH medium overnight at 42°C was centrifuged at 4700 × g for 10 min at room temperature. The supernatant was discarded and the bacteria were resuspended in MH broth to an OD600 of 1.0 (~1 × 10^9 CFU). Compounds (5X MIC) were mixed with 5 ml of molten MH agar medium and transferred immediately onto small 35 mm petri-plates, agar in the plate was allowed to solidify in the dark. Ten micro liter of culture was transferred to the small molecule containing plates and spread using sterile beads, plates were incubated at 42°C for 5 days in the dark. Bacteria spread on MH agar with 50 μg/mL kanamycin or MH agar alone, were used as positive and negative controls, respectively. After 5 days of incubation, any colonies that developed were assessed for resistance to the test compounds by determining MIC and the MBC as noted above.
Our rationale for performing the resistance studies was to determine the ability of C. jejuni strain to develop resistance to these compounds when cultured on solid media with a lethal dose (5X MIC) or in liquid media with a sub-lethal dose (0.5X MIC). The presence of resistant colonies in any of these assays would reduce the attractiveness of the relevant small molecule while an absence of resistant colonies would indicate a likely inability of C. jejuni to develop resistance in general. […] Since C. jejuni is the major cause of human campylobacteriosis (95% of the cases); (Butzler, [2004]) and due to limitation of compounds availability, we only performed resistance studies on C. jejuni 81–176. However, for future commercial application of these antimicrobials, more in-depth characterization of potential resistance by other C. jejuni strains and C. coli is warranted.

[6] = Campylobacter coli, ATCC33559; read-out: C. coli MIC
[7] = C. jejuni 81–176, 42°C microaerobic, dilution 200 to 12.5 μM
[8] = concentration at which 99.9% of organisms are killed
[9] = ATCC33559, concentration at which 99.9% of organisms are killed, read-out: C. coli MBC
[10] = Campylobacter coli, ATCC33559, read-out: C. coli MIC
[11] = ATCC33559, read-out: C. coli MBC

Row | SMILES | MIC (C. coli ATCC 33559 [1]; [6]) [µM] | MIC (C. jejuni 81–176 [2]; [7]) [µM] | MBC relative to MIC for C. jejuni (C. jejuni 81–176 [3]) | MBC (C. jejuni 81–176 [3]; [8]) [µM] | MBC relative to MIC for C. coli (C. coli ATCC 33559 [4]) | MBC (C. coli ATCC 33559 [4]; [9]) [µM] | Resistance, single step 5X MIC (C. jejuni 81–176 [5]) | MIC (C. coli ATCC 33559 [1]; [10]) [µM] | MIC (C. jejuni 81–176 [2]) [µM] | MBC (C. jejuni 81–176 [3]) [µM] | MBC (C. coli ATCC 33559 [4]; [11]) [µM]
1 | O=S(=O)(Nc1cccc(C(F)(F)F)c1)c1ccc(Br)cc1 [Comp 1] | 50 (≈ 19 µg/mL) | 50 (≈ 19 µg/mL) | same as that of their MIC | 50 (≈ 19 µg/mL) | same as that of their MIC | 50 (≈ 19 µg/mL) | No | – | – | – | –
2 | COc1ccc(CN2CCN(c3ccc(F)cc3)CC2)cc1C [Comp 2] | – | – | same as that of their MIC | – | two-fold higher | – | No | 50 (≈ 15.7 µg/mL) | 100 (≈ 31.4 µg/mL) | 100 (≈ 31.4 µg/mL) | 100 (≈ 31.4 µg/mL)
3 | CN(C)c1ccc(CN2CCN(c3ccccc3Cl)CC2)cc1 [Comp 3] | – | – | two-fold higher | – | same as that of their MIC | – | No | 50 (≈ 16.5 µg/mL) | 12.5 (≈ 4.12 µg/mL) | 25 (≈ 8.25 µg/mL) | 50 (≈ 16.5 µg/mL)
4 | Clc1ccc(N2CCN(Cc3ccsc3)CC2)cc1 [Comp 4] | 50 (≈ 14.6 µg/mL) | 50 (≈ 14.6 µg/mL) | same as that of their MIC | 50 (≈ 14.6 µg/mL) | two-fold higher | 100 (≈ 29.3 µg/mL) | No | – | – | – | –
5 | Cc1ccc(N2CCN(C/C=C/c3ccccc3)CC2)cc1 [Comp 5] | 50 (≈ 14.6 µg/mL) | 50 (≈ 14.6 µg/mL) | same as that of their MIC | 50 (≈ 14.6 µg/mL) | same as that of their MIC | 50 (≈ 14.6 µg/mL) | No | – | – | – | –
6 | O=c1c(Cl)c(Cl)cnn1-c1ccccc1Cl [Comp 7] | 50 (≈ 13.8 µg/mL) | 12.5 (≈ 3.44 µg/mL) | same as that of their MIC | 12.5 (≈ 3.44 µg/mL) | same as that of their MIC | 50 (≈ 13.8 µg/mL) | No | – | – | – | –
7 | Cc1c(C(C)NCc2cccc(OC3CCCC3)c2)cnn1-c1ccccc1 (stereo not drawn) [Comp 10] | 100 (≈ 37.6 µg/mL) | 50 (≈ 18.8 µg/mL) | same as that of their MIC | 50 (≈ 18.8 µg/mL) | same as that of their MIC | 100 (≈ 37.6 µg/mL) | No | – | – | – | –
8 | COc1ccc(CNCc2ccc(Cl)s2)cc1OCC(O)CN1CCCC1 (stereo not drawn) [Comp 12] | 50 (≈ 20.5 µg/mL) | 100 (≈ 41.1 µg/mL) | same as that of their MIC | 100 (≈ 41.1 µg/mL) | two-fold higher | 100 (≈ 41.1 µg/mL) | No | – | – | – | –
9 | CN(Cc1cccc2cnccc12)CC1CCCN(CCc2ccc(F)cc2)C1 (stereo not drawn) [Comp 13] | 50 (≈ 19.6 µg/mL) | 12.5 (≈ 4.89 µg/mL) | two-fold higher | 25 (≈ 9.79 µg/mL) | same as that of their MIC | 50 (≈ 19.6 µg/mL) | No | – | – | – | –
10 | CN(CC(O)COc1ccccc1CNC1(c2ccccc2)CC1)C1CCCCC1 (stereo not drawn) [Comp 17] | 50 (≈ 20.4 µg/mL) | 12.5 (≈ 5.11 µg/mL) | two-fold higher | 25 (≈ 10.2 µg/mL) | same as that of their MIC | 50 (≈ 20.4 µg/mL) | No | – | – | – | –
11 | CN(Cc1ccccc1)CC1CCCN(CCc2ccc(F)cc2)C1 (stereo not drawn) [Comp 18] | 200 (≈ 68.1 µg/mL) | 25 (≈ 8.51 µg/mL) | same as that of their MIC | 25 (≈ 8.51 µg/mL) | two-fold higher | > 200 | No | – | – | – | –
12 | CC(=O)Nc1ccc(CN(C)CC2CCCN(CCc3cccc(C(F)(F)F)c3)C2)cc1 (stereo not drawn) [Comp 22] | 100 (≈ 44.8 µg/mL) | 12.5 (≈ 5.59 µg/mL) | two-fold higher | 25 (≈ 11.2 µg/mL) | same as that of their MIC | 100 (≈ 44.8 µg/mL) | No | – | – | – | –
